Like-named read-outs stand apart in the source and are kept apart here.
Assays:
HepG2 cells [1] = experiment: HepG2 cell apoptosis by flow cytometry (Annexin V-FITC/PI); type: cell-based; details: 24 h
Protocol: (§1) HepG2 cells were cultured in Roswell Park Memorial Institute (RPMI) 1640 medium (GIBCO, Grand Island, NY, USA) supplemented with 10% heat-inactivated fetal bovine serum (PAN Biotech GmbH, Aidenbach, Germany), 100 U/mL penicillin, and 100 μg/mL streptomycin. The cells were maintained in a humidified atmosphere with 5% CO2 at 37 °C. Upon reaching 90% confluence, the cells were prepared as single-cell suspensions at a density of 1 × 10^4 cells/mL by treatment with 0.25% trypsin with 0.02% EDTA and then dispensed into 12-well plates (Corning, NY, USA) with a total volume of 1.5 mL per well. After culturing for 24 h, the medium was discarded, and the cells were incubated with fresh medium or medium containing different hepatotoxic compounds at various concentrations for an additional 24 h. […] After treatment, the cells were collected for apoptosis analysis. To investigate the effects of the hepatotoxic compounds on HepG2 cell apoptosis, flow cytometry was performed with a FACSCalibur flow cytometer (BD Biosciences) using an Annexin V-FITC apoptosis detection kit. The cells were prepared according to the manufacturer’s instructions. Briefly, the collected cell pellets were washed three times by centrifugation at 2000 rpm and 4 °C for 5 min with PBS and resuspended in binding buffer. Then, the cells were incubated with Annexin V-FITC for 15 min, propidium iodide (PI) was added, and the cells were incubated for another 5 min. The whole labeling process was performed in the dark. After fluorescent labeling, the cell suspension was immediately analyzed by flow cytometry. Cells in the early phases of apoptosis can bind Annexin V-FITC but exclude PI, while cells in late apoptosis or those that are necrotic can be stained with Annexin V-FITC and PI simultaneously.

HepG2 cells [2] = experiment: HepG2 cell apoptosis after incubation of the compound with human liver microsomes (metabolism mixture); type: cell-based; details: mixture on HepG2 cells 24 h
Protocol: as §1, with “simultaneously. The incubation mixtures were prepared following the instructions from the manufacturer of the metabolic stability kits and contained sagittatoside A, icariside I, baohuoside I, and icaritin, of which the final concentrations were 49, 50, 32 and 3.8 μg/mL. […]” for “simultaneously.”

in vitro [3] = type: in vitro ADME, mice; details: mouse, microsomes; for amount remaining: 1 h, 5 μM
[4] = type: in vitro ADME, SD rats; details: SD, rat, microsomes, 1 h, 5 μM
in vitro [5] = type: in vitro ADME, rhesus monkeys; details: rhesus monkey, microsomes; for amount remaining: 1 h, 5 μM
in vitro [6] = type: in vitro ADME, beagle dogs; details: beagle, dog, microsomes; for amount remaining: 1 h, 5 μM
in vitro [7] = type: in vitro ADME, mice; details: mouse, microsomes; for final amount remaining: 60 min, 5 μM
[8] = type: in vitro ADME, SD rats; details: SD, rat, microsomes, 60 min, 5 μM
in vitro [9] = type: in vitro ADME, rhesus monkeys; details: rhesus monkey, microsomes; for final amount remaining: 60 min, 5 μM
in vitro [10] = type: in vitro ADME, beagle dogs; details: beagle, dog, microsomes; for final amount remaining: 60 min, 5 μM

| amount remaining (in vitro [3]) [%] | amount remaining [4] [%] | amount remaining (in vitro [5]) [%] | amount remaining (in vitro [6]) [%] | final amount remaining (in vitro [7]) [%] | final amount remaining [8] [%] | final amount remaining (in vitro [9]) [%] | final amount remaining (in vitro [10]) [%] | CLint scaled at 5 μM (in vitro [3]) [mL/min/kg] | CLint scaled at 5 μM (in vitro [5]) [mL/min/kg] | CLint scaled at 5 μM (in vitro [6]) [mL/min/kg] | CLint scaled at 5 μM (in vitro [7]) [mL/min/kg] | CLint scaled at 5 μM (in vitro [9]) [mL/min/kg] | CLint scaled at 5 μM (in vitro [10]) [mL/min/kg] | Structure (SMILES) | apoptosis rate (HepG2 cells [1]; 3.8 μg/mL, mean ± SD n = 3, p < 0.01 vs control) [%] | apoptosis rate, metabolism mixture (HepG2 cells [2]; 3.8 μg/mL incubated 30 min with human liver microsomes (phase I and II), p < 0.01) [%] | apoptosis rate (HepG2 cells [1]; 50 μg/mL, mean ± SD n = 3, no change vs control) [%] | apoptosis rate, metabolism mixture (HepG2 cells [2]; 50 μg/mL incubated 30 min with human liver microsomes (phase I and II), p < 0.05) [%] | apoptosis rate (HepG2 cells [1]; 32 μg/mL, mean ± SD n = 3, p < 0.05 vs control) [%] | apoptosis rate, metabolism mixture (HepG2 cells [2]; 32 μg/mL incubated 30 min with human liver microsomes (phase I and II), insignificant) [%] |
| --- | --- | --- | --- | --- | --- | --- | --- | --- | --- | --- | --- | --- | --- | --- | --- | --- | --- | --- | --- | --- |
| 28.55 ± 0.04 | 48.95 ± 4.13 | 24.73 ± 2.38 | 16.75 ± 0.20 | 7.73 ± 0.17 | 19.44 ± 0.36 | 14.86 ± 0.76 | 4.42 ± 0.67 | – | – | – | – | – | – | COc1ccc(-c2oc3c(CC=C(C)C)c(O)cc(O)c3c(=O)c2O)cc1 [icaritin] | 25.93 ± 0.66 | 5.61 ± 0.83 | – | – | – | – |
| 7.69 ± 1.17 | 2.38 ± 0.32 | 6.50 ± 0.49 | 34.93 ± 2.83 | 12.18 ± 0.64 | 22.71 ± 10.94 | 17.23 ± 5.20 | 30.79 ± 3.26 | 80.4 | 38.1 | 25.2 | 79.3 | 36.4 | 24.7 | COc1ccc(-c2oc3c(CC=C(C)C)c(O[C@@H]4O[C@H](CO)[C@@H](O)[C@H](O)[C@H]4O)cc(O)c3c(=O)c2O)cc1 [icariside I] | – | – | 2.39 ± 0.34 | 3.86 ± 0.22 | – | – |
| 28.58 ± 4.12 | 8.52 ± 0.15 | 12.41 ± 1.02 | 11.74 ± 0.78 | 11.64 ± 1.63 | 1.55 ± 0.33 | 0.86 ± 0.17 | 5.69 ± 0.33 | – | – | 27.6 | – | – | 28.4 | COc1ccc(-c2oc3c(CC=C(C)C)c(O)cc(O)c3c(=O)c2O[C@@H]2O[C@@H](C)[C@H](O)[C@@H](O)[C@H]2O)cc1 [baohuoside I] | – | – | – | – | 3.93 ± 0.20 | 3.40 ± 0.19 |

Reference: publication PMC10975178, “Evaluation on the Potential for Hepatotoxic Components from Herba Epimedii to Induce Apoptosis in HepG2 Cells and the Analysis of the Influence of Metabolism in Liver Microsomes” (Molecules, 2024)
